Results taken from ChEMBL document CHEMBL4000198, “Triterpene saponins and megastigmane glucosides from Camellia bugiamapensis” (Bioorg Med Chem Lett, 2017).

Key:
[1] = tested on: RAW264.7; assay: Inhibition of LPS-induced NO production in mouse RAW264.7 cells pretreated for 30 mins followed by LPS challenge measured after 12 hrs by Griess assay; format: functional, cell-based
[2] = tested on: RAW264.7; assay: Inhibition of LPS-induced NO production in mouse RAW264.7 cells pretreated for 30 mins followed by LPS challenge measured after 24 hrs by Griess assay; format: functional, cell-based
[3] = tested on: RAW264.7; assay: Cytotoxicity against mouse RAW264.7 cells by MTT assay; format: cell-based

IC50 [1] [µM]	IC50 [2] [µM]	Compound	Activity [3]
2.2		COc1cc(O)cc(O)c1C(=O)/C=C/c1ccccc1 [CARDAMOMIN]	
	49.4	COC(=O)[C@H]1O[C@@H](O[C@H]2CC[C@]3(C)[C@H]4CC=C5[C@@H]6CC(C)(C)CC[C@]6(CO)[C@H](O)C[C@@]5(C)[C@]4(C)CC[C@H]3C2(C)C)[C@H](O[C@@H]2O[C@@H](C)[C@H](O)[C@@H](O)[C@H]2O)[C@@H](O)[C@@H]1O	Non-Toxic
